Assay results published in ChEMBL document CHEMBL1201862, “PubChem BioAssay data set” (2004).
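Method: 48-hour compound exposure of cells in 96-well plates, five concentrations, linear interpolation of endpoints. GI50: concentration for 50% inhibition of growth.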 Active and inactive are the calls of the source. Rule as the data show it: active = GI50 up to about 1.1 µM and inactive = higher.

Key:
Test in all cases: NCI tumour cell line growth inhibition, 48 h
[1] = test system: SF-539
[2] = test system: SK-MEL-28
[3] = test system: U-251
[4] = test system: A549
[5] = test system: NCI-H460
[6] = test system: HT-29
[7] = test system: HL-60
[8] = test system: KM12
[9] = test system: TK-10
[10] = test system: SR
[11] = test system: HCC 2998
[12] = test system: RXF 393
[13] = test system: NCI-H226
[14] = test system: COLO 205
[15] = test system: LOX IMVI
[16] = test system: HCT-15
[17] = test system: HOP-62
[18] = test system: OVCAR-4

SMILES	GI50 [1]	GI50 [2]	GI50 [3]	GI50 [4]	GI50 [5]	GI50 [6]	GI50 [7]	GI50 [8]	GI50 [9]	GI50 [10]	GI50 [11]	GI50 [12]	GI50 [13]	GI50 [14]	GI50 [15]	GI50 [16] [µM]	GI50 [17]	GI50 [18]
CN(c1ccccc1)C1C(=O)N(c2ccccc2)C1/C=C/c1ccccc1 (centres undefined)	> 100 µM (inactive)	> 100 µM (inactive)	> 100 µM (inactive)	> 100 µM (inactive)	> 100 µM (inactive)	> 100 µM (inactive)	> 100 µM (inactive)	> 100 µM (inactive)	> 100 µM (inactive)	> 100 µM (inactive)	> 100 µM (inactive)	> 100 µM (inactive)	> 100 µM (inactive)	> 100 µM (inactive)	–	–	–	–
CCOC(C[C@H](O)[C@H]1COC(=S)S1)OCC	> 100 µM (inactive)	–	> 100 µM (inactive)	> 100 µM (inactive)	> 100 µM (inactive)	> 100 µM (inactive)	> 100 µM (inactive)	> 100 µM (inactive)	> 100 µM (inactive)	> 100 µM (inactive)	> 100 µM (inactive)	4.65 µM (inactive)	> 100 µM (inactive)	> 100 µM (inactive)	> 100 µM (inactive)	> 100	> 100 µM (inactive)	–
O=C(c1ccccc1)[C@H]1Nc2ccc(Cl)cc2C2c3ccccc3CC21 (some centres undefined)	> 100 µM (inactive)	32.3 µM (inactive)	47.6 µM (inactive)	34.6 µM (inactive)	63.5 µM (inactive)	83.9 µM (inactive)	–	> 100 µM (inactive)	57.1 µM (inactive)	71.6 µM (inactive)	19.9 µM (inactive)	10.5 µM (inactive)	36.7 µM (inactive)	41.1 µM (inactive)	50.4 µM (inactive)	60	46.1 µM (inactive)	22.2 µM (inactive)
COc1ccc(C)cc(O)c1=O	42.5 µM (inactive)	57.4 µM (inactive)	42.8 µM (inactive)	> 100 µM (inactive)	17.7 µM (inactive)	44 µM (inactive)	19.1 µM (inactive)	> 100 µM (inactive)	> 100 µM (inactive)	5.28 µM (inactive)	–	39.7 µM (inactive)	> 100 µM (inactive)	30.8 µM (inactive)	11.9 µM (inactive)	> 100	54.6 µM (inactive)	45 µM (inactive)
CCCn1c(SCCSc2c3ccccc3c(-c3nc(F)nc(F)n3)n2CCC)c2ccccc2c1-c1nc(F)nc(F)n1	38.6 µM (inactive)	> 100 µM (inactive)	> 100 µM (inactive)	> 100 µM (inactive)	> 100 µM (inactive)	> 100 µM (inactive)	> 100 µM (inactive)	> 100 µM (inactive)	> 100 µM (inactive)	27 µM (inactive)	> 100 µM (inactive)	> 100 µM (inactive)	–	38 µM (inactive)	–	> 100	> 100 µM (inactive)	> 100 µM (inactive)
COc1cc2ccnc3c(=C(SC)SC)c(=O)c(c1OC)c23	17.4 µM (inactive)	13 µM (inactive)	42.7 µM (inactive)	42.3 µM (inactive)	35.3 µM (inactive)	12.3 µM (inactive)	2.26 µM (inactive)	22.4 µM (inactive)	14 µM (inactive)	–	16.4 µM (inactive)	13 µM (inactive)	–	3.37 µM (inactive)	2.87 µM (inactive)	11.9	> 100 µM (inactive)	15.8 µM (inactive)
COc1cc(=O)oc(/C=C/CO)c1C	> 100 µM (inactive)	> 100 µM (inactive)	> 100 µM (inactive)	> 100 µM (inactive)	–	> 100 µM (inactive)	> 100 µM (inactive)	> 100 µM (inactive)	> 100 µM (inactive)	> 100 µM (inactive)	> 100 µM (inactive)	> 100 µM (inactive)	> 100 µM (inactive)	> 100 µM (inactive)	> 100 µM (inactive)	–	> 100 µM (inactive)	> 100 µM (inactive)
CN1C/C(=C\c2ccco2)c2nc(N)nc(-c3ccco3)c2C1	> 100 µM (inactive)	> 100 µM (inactive)	> 100 µM (inactive)	> 100 µM (inactive)	> 100 µM (inactive)	99.8 µM (inactive)	52.7 µM (inactive)	31.5 µM (inactive)	> 100 µM (inactive)	–	> 100 µM (inactive)	> 100 µM (inactive)	34.5 µM (inactive)	> 100 µM (inactive)	60.4 µM (inactive)	> 100	> 100 µM (inactive)	–
COc1ccc2nc3cc(Cl)ccc3c(Sc3ccccc3[N+](=O)[O-])c2c1	58.1 µM (inactive)	> 100 µM (inactive)	> 100 µM (inactive)	> 100 µM (inactive)	> 100 µM (inactive)	–	–	> 100 µM (inactive)	81.8 µM (inactive)	> 100 µM (inactive)	> 100 µM (inactive)	49.5 µM (inactive)	17.7 µM (inactive)	17.3 µM (inactive)	> 100 µM (inactive)	> 100	69 µM (inactive)	> 100 µM (inactive)
